Patent publication US9145398B2, “Methods of treating CXCR4-expressing cancers” (University of Louisville Research Foundation, Inc., priority 2010, dated 2015)
“Also recorded” adds a separate entry of the source.

Key:
hCXCR4-GFP [1] = biological target: T1, hCXCR4-GFP (Homo sapiens, UniProt P61073); test: Intracellular calcium mobilization assay, hCXCR4-GFP expressing 300.19 cells, CXCL12; type: cell-based; set-up: IC50 of intracellular calcium mobilization, CXCR4; other: CXCL12-mediated; other: 50 μM test compound; normalized Δ fluorescence (CXCR4, intracellular calcium mobilization); other: 50 μM test compound, 60 seconds pretreatm; conditions: for normalized Δ fluorescence (CXCR4, intracellular calcium mobilization): 50 μM test compound, 60 seconds pretreatment, optimized CXCL12 (AMD3100 concentration not given); for IC50: CXCL12-mediated, read-out: IC50 of intracellular calcium mobilization, CXCR4
Description: (§1) Intracellular Calcium Mobilization Assay Method: The intracellular calcium mobilization assay used 300.19 cells which stably expressed hCXCR4-GFP, as described previously in Pello et al. (2008). Cells were loaded with INDO-I and then pretreated with the 50 μM of the test compound for 60 seconds prior to stimulation of intracellular calcium mobilization with an optimized concentration of CXCL12. […] The value Δ florescence is the difference between (a) the fluorescence ratio from cells before exposure to CXCL12 at its optimized concentration and (b) the fluorescence ratio from cells following stimulation with the optimized concentration of CXCL12. Decreases in Δ florescence correspond to decreases in intracellular calcium mobilization, and therefore, decreased signaling. As CXCL12 concentration was optimized for each test compound, results are presented as normalized Δ florescence which is Δ fluorescence divided by the fluorescence ratio of optimized CXCL12-only stimulation. In some instances, the IC50 concentration (concentration at which intracellular calcium mobilization is reduced to 50% of the Δ fluorescence of the CXCL12 plus DMSO control) of the test compounds was determined. All assays were performed a minimum of four times; error bars represent the standard deviation of the mean.

hCXCR4-GFP [2] = biological target: T1, hCXCR4-GFP; test: Chemotaxis assay, hCXCR4-GFP expressing 300.19 cells, CXCL12; type: cell-based
Description: (§2) Cells were suspended in chemotaxis buffer (RPMI 1640, 1% fetal bovine serum, 1 mM HEPES) at a concentration of 1×10^7 cells per ml. Cell chemotaxis was determined by examining the migration of the 300.19 cells in response to administration of 50 μM test compound plus an optimized concentration of CXCL12 using a chemotaxis assay that was previously described in Basu et al. (Basu et al., Critical role for polar residues in coupling leukotriene B4 binding to signal transduction in BLT1, J. Biol. Chem. (2007) Vol. 282, pp. 10005-17). 100 μL of 300.19 cells from the above cell suspension were placed in the upper chamber of a Transwell support (Corning Costar, Cambridge, Mass.) and were separated by a 5 micron filter from a bottom chamber containing 50 μM test compound plus the optimized concentration of CXCL12 in a final bottom chamber volume of 600 μl. After 3 h of incubation at 37° C. in 5% CO2, the upper chamber was removed and cells in the lower chamber were counted in a Bürker chamber. Cell counts for all samples were normalized to a CXCL12 plus DMSO control and results are reported using this normalized measure, referred to herein as the chemotaxis index. In some instances, the IC50 concentration (i.e., the concentration at which the chemotaxis index is reduced to 50% of the chemotaxis index of the CXCL12 plus DMSO control) of the test compounds was determined. All assays were performed a minimum of four times; error bars represent the standard deviation of the mean.

TC-1 tumor cells = type: in vivo; conditions: 5 mg/kg i.p. every day for 21 days; versus PBS or Vehicle controls
Source text: Development of Animal Model for CXCR4 Dependent Cancer Metastasis in Lungs: To establish a CXCR4 dependent lung tumor metastasis model, we first screened several cancer cell lines that are known to metastasize to lungs in mice models to determine which cancer cell lines endogenously express CXCR4 receptor. The mice cell lines screened were Lewis lung carcinoma, B16F10 melanoma, and TC-1 cervical carcinoma. Mice cell lines were screened using flow cytometry-based surface receptor staining using a fluorochrome labeled antibody to mouse CXCR4 receptor. […] The TC-1 cell line was generated by transfection of murine lung squamous epithelial cells by Human pappillomavirus (HPV) oncogenes E6, E7, and activated Ras.
5 mg/kg body weight of AMD3100, I-28, I-36, or I-38 were also injected at the same dose intra-peritoneal (i.p.) every day for 21 days starting from the day before the tumor cell injection. Mice were sacrificed and lungs were perfused and collected on day 21 post tumor challenge. Lungs were stored in formalin for 16 hrs and then transferred into 70% ethanol until the lung lobes became lucid. All five lung lobes were separated. Tumors were counted using a magnifying glass or a microscope. Tumor sizes were measured using a digital caliper. The total number of tumors counted in all five lung lobes of an individual mouse is reported as the tumor incidence. Mean tumor sizes were added together to calculate cumulative tumor size, which is reported as the tumor burden for each mouse.

hCXCR4-GFP [3] = test: Intracellular calcium mobilization assay, hCXCR4-GFP expressing 300.19 cells, CXCL12; type: cell-based, human; conditions: for difference between CXCR4- and BLT1-mediated intracellular calcium mobilization: 50 μM test compound
Description: as §1

300.19 cells = test: Cytotoxicity assay, propidium iodide based flow cytometry; type: cell-based; conditions: for cytotoxicity, percentage of cells staining positive for PI: 50 μM test compound
Description: Cytotoxicity Assay Method: To determine the potential for test compound cytotoxicity to influence cell intracellular calcium mobilization and chemotaxis, cell cytotoxicity was assessed using propidium iodide (PI) based flow cytometry. Propidium iodine is impermeable to intact cell membranes and thus its lack of intercalation into DNA (which increases PI fluorescence) is a positive indicator of cell viability. Cytotoxicity values are presented as percentage of cells staining positive for PI. Lower values of fluorescence indicate less cytotoxicity. All assays were performed a minimum of four times; error bars represent the standard deviation of the mean.

BLT1 [4] = biological target: T2, BLT1 (Homo sapiens, UniProt Q15722); test: Intracellular calcium mobilization assay, cells expressing BLT1, LTB4; type: cell-based; conditions: for IC50: LTB4-mediated; for normalized Δ fluorescence (BLT1, intracellular calcium mobilization): 50 μM test compound, LTB4
Description: as §1
At 50 μM test compound concentrations in BLT1-expressing cells, I-44 (0.040) and I-46 (0.017) inhibited intracellular calcium mobilization.

hCXCR4-GFP [5] = test: Chemotaxis assay, hCXCR4-GFP expressing 300.19 cells, CXCL12; type: cell-based, human; conditions: 50 μM test compound
Description: as §2

BLT1 [6] = biological target: T2, BLT1; test: Chemotaxis assay, cells expressing BLT1, LTB4; type: cell-based; conditions: 50 μM test compound, LTB4-induced
Description: as §2
To examine specificity of some of the compounds for CXCR4, their activity was tested against a non-family member class A G protein-coupled receptor, BLT1. […] I-38 and I-43 inhibited BLT1-mediated chemotaxis (0.23) and (0.045) to about the same extent as CXCR4-mediated chemotaxis (0.21) and (0.064), respectively.

T1 sequence (P61073 whole entry): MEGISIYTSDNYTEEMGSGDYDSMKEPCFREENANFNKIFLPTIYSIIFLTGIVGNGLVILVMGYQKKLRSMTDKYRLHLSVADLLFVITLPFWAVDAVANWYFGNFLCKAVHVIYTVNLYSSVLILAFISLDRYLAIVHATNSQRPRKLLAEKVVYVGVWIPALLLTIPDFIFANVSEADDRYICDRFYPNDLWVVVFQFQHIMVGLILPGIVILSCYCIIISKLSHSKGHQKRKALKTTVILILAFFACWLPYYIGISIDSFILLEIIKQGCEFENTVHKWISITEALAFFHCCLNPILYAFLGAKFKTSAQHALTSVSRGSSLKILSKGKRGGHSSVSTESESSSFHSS
T2 sequence (Q15722 whole entry, species assumed): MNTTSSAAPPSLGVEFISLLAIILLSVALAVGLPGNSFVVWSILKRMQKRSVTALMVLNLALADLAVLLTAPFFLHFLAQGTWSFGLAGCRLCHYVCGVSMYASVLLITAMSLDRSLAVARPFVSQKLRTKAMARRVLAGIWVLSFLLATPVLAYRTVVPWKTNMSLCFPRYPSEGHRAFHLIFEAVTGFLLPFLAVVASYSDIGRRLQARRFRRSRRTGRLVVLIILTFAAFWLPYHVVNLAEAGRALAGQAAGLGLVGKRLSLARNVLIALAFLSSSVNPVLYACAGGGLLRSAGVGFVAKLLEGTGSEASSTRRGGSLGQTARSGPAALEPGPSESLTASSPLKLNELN

SMILES | IC50 (hCXCR4-GFP [1]) [µM] | IC50 (BLT1 [4]) [µM] | cytotoxicity, percentage of cells staining positive for PI (300.19 cells) [%] | difference between CXCR4- and BLT1-mediated chemotaxis (hCXCR4-GFP [5]) | other results
c1cc(CN2CCCNCCNCCCNCC2)ccc1CN1CCCNCCNCCCNCC1 [AMD3100, reference compound] |  |  |  |  | normalized Δ fluorescence (CXCR4, intracellular calcium mobilization) (hCXCR4-GFP [1]): 0.51; inhibition of chemotaxis (hCXCR4-GFP [2]; concentrations ranging from 50 nM to 100 nM, data not shown): completely inhibited; TC-1 metastatic tumor incidence and burden in lungs (TC-1 tumor cells): reduced mice TC-1 metastatic tumor incidence and burden in lungs; also recorded: metastasis of TC-1 was significantly inhibited
C(=C\N1CCCC1)/c1nnnn1-c1ccc2ccccc2c1 [Compound I-2, 1-(2-naphthyl)-5-(2-pyrrolidin-1-ylvinyl)tetrazole] | 45 | 40 | 63.5 |  | difference between CXCR4- and BLT1-mediated intracellular calcium mobilization (hCXCR4-GFP [3]): no significant difference; cytotoxicity at 10 μM (300.19 cells): retained cytotoxicity
CCc1ccc(OCCNc2cc(N3CCNC(C)C3)ccc2[N+](=O)[O-])cc1 (centres unmarked) [Compound I-4, N-[2-(4-ethylphenoxy)ethyl]-5-(3-methylpiperazin-1-yl)-2-nitro-aniline] | 45 | 40 | 98.8 | small differences | difference between CXCR4- and BLT1-mediated intracellular calcium mobilization (hCXCR4-GFP [3]): no significant difference; cytotoxicity at 5 μM (300.19 cells; 5 μM): maintained cytotoxicity
N=c1n(CCN2CCCCC2)c2ccccc2n1CC(O)COc1ccc(Cl)cc1 (centres unmarked) [Compound I-5, 1-(4-chlorophenoxy)-3-[2-imino-3-[2-(1-piperidyl)ethyl]benzoimidazol-1-yl]-propan-2-ol] |  |  |  | small differences | 
C=C(C)C1CC=C(CN(CCCN(C)C)CCCN(C)C)CC1 (centres unmarked) [Compound I-6, N-(3-dimethylaminopropyl)-N-[(4-isopropenyl-1-cyclohexenyl)methyl]-N′,N′-dimethyl-propane-1,3-diamine] |  |  |  | small differences | 
COc1ccc(NCc2nc3ccccc3n2CCOc2ccccc2C)cc1 [Compound I-7, N-((1-(2-(o-tolyloxy)ethyl)-1H-benzo[d]imidazol-2-yl)methyl)-4-methoxybenzenamine] |  |  | 53.4 |  | cytotoxicity at 10 μM (300.19 cells): retained cytotoxicity
CCOc1ccc(NCc2nc3ccccc3n2CCOc2ccccc2)cc1 [Compound I-8, 4-ethoxy-N-((1-(2-phenoxyethyl)-1H-benzo[d]imidazol-2-yl)methyl)benzenamine] |  |  |  | small differences | 
CCC(=O)NCCNc1nc2cc(C)cc(C)c2cc1C#N [Compound I-13, N-[2-[(3-cyano-5,7-dimethyl-2-quinolyl)amino]ethyl]propanamide] | 5 | 2.5 |  |  | difference between CXCR4- and BLT1-mediated intracellular calcium mobilization (hCXCR4-GFP [3]): no significant difference
CCOC(=O)c1c(C)[nH]c(C(=O)COC(=O)c2c(-c3ccccc3)noc2C)c1C [Compound I-32, [2-(4-ethoxycarbonyl-3,5-dimethyl-1H-pyrrol-2-yl)-2-oxo-ethyl]5-methyl-3-phenyl-isoxazole-4-carboxylate] |  |  |  | small differences | 
COC(=O)c1ccc(NC(=O)c2ccc3nc(-c4ccccn4)c(-c4ccccn4)nc3c2)cc1 [Compound I-39, methyl 4-(2,3-di(pyridin-2-yl)quinoxaline-6-carboxamido)benzoate] |  |  |  |  | normalized Δ fluorescence (CXCR4, intracellular calcium mobilization) (hCXCR4-GFP [1]): 0.31
O=C(/C=C/c1ccccc1)NC(=S)Nc1cccc(-c2nc3ncccc3o2)c1 [Compound I-40, 1-(3-(oxazolo[4,5-b]pyridin-2-yl)phenyl)-3-((E)-3-phenylacryloyl)thiourea] |  |  | 88.3 |  | 
CN1C/C(=C/c2cccnc2)C(=O)/C(=C/c2cccnc2)C1 [Compound I-43, (3E,5Z)-1-methyl-3,5-bis((pyridin-3-yl)methylene)piperidin-4-one] |  |  |  |  | chemotaxis index (CXCR4-mediated) (hCXCR4-GFP [2]; 50 μM test compound plus optimized CXCL12, normalized to CXCL12 plus DMSO control): 0.064; IC50 (hCXCR4-GFP [2]; hCXCR4-GFP 300.19 cells, CXCL12): 20 µM; chemotaxis index (BLT1-mediated) (BLT1 [6]): 0.045
COc1ccc(-c2cc(-c3ccccc3)cc3sc(/C(N)=N\C#N)c(N)c23)cc1 [Compound I-44, (E)-3-amino-N′-cyano-4-(4-methoxyphenyl)-6-phenylbenzo[b]thiophene-2-carboxamidine] |  |  | 99.8 |  | normalized Δ fluorescence (CXCR4, intracellular calcium mobilization) (hCXCR4-GFP [1]): 0.29; normalized Δ fluorescence (BLT1, intracellular calcium mobilization) (BLT1 [4]): 0.040

Continued, in another order:

IC50 (hCXCR4-GFP [1]) [µM] | IC50 (BLT1 [4]) [µM] | SMILES | cytotoxicity, percentage of cells staining positive for PI (300.19 cells) [%] | difference between CXCR4- and BLT1-mediated chemotaxis (hCXCR4-GFP [5]) | other results
5 | 2.5 | COc1ccccc1C(=O)OCCNc1nc2cc(C)cc(C)c2cc1C#N [Compound I-12, 2-[(3-cyano-5,7-dimethyl-2-quinolyl)amino]ethyl 2-methoxybenzoate] |  |  | difference between CXCR4- and BLT1-mediated intracellular calcium mobilization (hCXCR4-GFP [3]): no significant difference
50 | 30 | CCOc1ccc(NCC(O)Cn2c3ccccc3n3c(=O)cc(C)c(C#N)c23)cc1 (centres unmarked) [Compound I-15, 5-[3-[(4-ethoxyphenyl)amino]-2-hydroxypropyl]-1,5-dihydro-3-methyl-1-oxo-pyrido[1,2-a]benzimidazole-4-carbonitrile] |  |  | normalized Δ fluorescence (CXCR4, intracellular calcium mobilization) (hCXCR4-GFP [1]): 0.45; fold greater inhibition of CXCR4-mediated than BLT1-mediated intracellular calcium mobilization (hCXCR4-GFP [3]; from normalized Δ fluorescence): ~3 fold; normalized Δ fluorescence (BLT1, intracellular calcium mobilization) (BLT1 [4]): 0.16
35 | 30 | CCOc1ccc(NCC(O)Cn2c3ccccc3c3ccccc32)cc1 (centres unmarked) [Compound I-16, 1-carbazol-9-yl-3-(4-ethoxyphenyl)amino-propan-2-ol] | 67.9 | small differences | cytotoxicity at 10 μM (300.19 cells): retained cytotoxicity
